Columns and labels:
PS1 [1] = assay: PS1 gene expression in brains of mice on a vitamin B-deprived diet (real-time PCR); assay type: in vivo; settings: TgCRND8 mice and wild-type controls, SAM 400 μg/day, brain cDNA normalised to β-actin, FIG. 1, even lower than control diet
Method: (§1) In particular, the effect of SAM was tested at pharmacological concentrations (400 μg/day) on TgCRND8 mice and the corresponding wild-type controls.
(§2) RNA was extracted from cell cultures and homogenised brains, and cDNA was synthesised. 0.5 μg of total cDNA was used for each real-time reaction on an Opticon2 DNA Engine (MJ Research) using SYBR-Green reagents. The amplification efficiency for each pair of primers was previously determined by amplification of a standard linear curve. The experimental samples were compared with a standard curve of a specific gene to determine the quantity of specific cDNA present in the standard reaction. The standards were obtained from highly purified PCR products amplified by positive controls. The total cDNA levels were normalised to the β-actin control (gene housekeeping).

BACE [2] = assay: BACE gene expression in brains of mice on a vitamin B-deprived diet (real-time PCR); assay type: in vivo; settings: TgCRND8 mice and wild-type controls, SAM 400 μg/day, brain cDNA normalised to β-actin, FIG. 1, even lower than control diet
Method: as §1, §2

SK-N-BE cell cultures = assay: SAM uptake in cell cultures (HPLC and tritiated SAM scintillation count); assay type: in vitro ADME, human; settings: 100 μM SAM in F14 medium, 96 hours, HPLC; control 1
Method: For the cell cultures, 100 μM of SAM was added to the F14 cell culture medium (complete or deprived of vitamin B, according to trial design) and the cultures were stopped after 96 hours.
For the mice, 400 μg/day of SAM was administered orally by feeding probe needle, and the animals were sacrificed after 2 months; the animals were fed on a complete diet or a vitamin B-deprived diet, according to trial design. SAM levels were analysed by HPLC with a Varian HPLC system. The cells and homogenised brains were lysed in distilled water, and the macromolecules were precipitated with 1.5 M PCA. Standard SAM curves were calculated before and after the experimental samples. For the analysis of tritiated SAM, cells were treated as described above, while mice were treated for 4 days to minimise exposure to the radioactive drug. The cells and homogenised brains were lysed in distilled water. […] The uptake of radioactive SAM was measured by scintillation with a beta counter.
To establish whether the increase was due to uptake of exogenous SAM as opposed to an increase in the endogenous reserves in the presence of elevated extracellular concentrations of the molecule, a test was performed with radioactive SAM. 100 μM of tritiated SAM (SAM[3H]) was added to SK-N-BE cell cultures, and the uptake was evaluated by cell lysis and radioactivity count.

[3] = SAM uptake in mouse brain after oral administration (HPLC and tritiated SAM scintillation count); assay type: in vivo; settings: mice, 800 μg tritiated SAM; total and cleared lysates higher
Method: For the mice, 400 μg/day of SAM was administered orally by feeding probe needle, and the animals were sacrificed after 2 months; the animals were fed on a complete diet or a vitamin B-deprived diet, according to trial design. SAM levels were analysed by HPLC with a Varian HPLC system. The cells and homogenised brains were lysed in distilled water, and the macromolecules were precipitated with 1.5 M PCA. Standard SAM curves were calculated before and after the experimental samples. For the analysis of tritiated SAM, cells were treated as described above, while mice were treated for 4 days to minimise exposure to the radioactive drug. The cells and homogenised brains were lysed in distilled water. A portion of lysed brains was sonicated and centrifuged to separate membranes and cell organelles; another portion was treated with perchloric acid (PCA) after sonication to separate the macromolecules. The uptake of radioactive SAM was measured by scintillation with a beta counter.
A portion of the total brain lysates was also sonicated and centrifuged to obtain a cleared lysate (cytoplasm), and a further portion of this cleared lysate was precipitated with perchloric acid (PCA) to eliminate the proteins (soluble lysate).

PS1 [4] = assay: Preliminary experiments: PS1 expression in SK-N-SH neuroblastoma line in vitamin B-deprived medium; assay type: cell-based; settings: medium deprived of folate, vitamin B12 and vitamin B6, SAM at various concentrations, published
Method: (§3) Preliminary experiments have been performed on a neuroblastoma line (SK-N-SH) which expresses APP, PS1, PS2, BACE, alpha-secretase, the other components of gamma-secretase, and Notchl. The cultures were treated with a culture medium deprived of folate, vitamin B12 and vitamin B6 (in order to alter the metabolism of homocysteine), to which SAM was added at various concentrations (to balance the effects of vitamin deprivation). […] In experiments conducted with HpaII/PCR on APP and PS1 promoters, we found a major difference in the methylation of one of the CpG sites of the PS1 promoter. We concluded that the PS1 gene can be partly silenced by administration of exogenous SAM. The administration of SAM can reduce PS1 expression, restoring the metabolic balance in favour of alpha-secretase. Experiments have also been conducted with transgenic mice of the strain TgCRND8, and corresponding controls; these mice are characterised by the presence of the human mutated APP gene, and can therefore develop amyloid plaques in a short time. These animals were fed on a complete diet or a diet lacking in the vitamins of the B group; once again, as in the cells, an increase in PS1 and BACE expression was observed.

BACE [5] = assay: Preliminary experiments: BACE expression in SK-N-SH neuroblastoma line in vitamin B-deprived medium; assay type: cell-based; settings: medium deprived of folate, vitamin B12 and vitamin B6, SAM at various concentrations, published
Method: as §3

PS1 [6] = assay: PS1 gene expression in vitamin-deprived SK-N-BE neuroblastoma cells (real-time PCR); assay type: cell-based, human; settings: FIG. 2, SOD and GSH to a lesser extent than SAM
Method: as §2
(§4) As homocysteine metabolism is involved in both methylation and oxidoreduction reactions, we tested the effect of various antioxidants on the expression of the two genes.

BACE [7] = assay: BACE gene expression in vitamin-deprived SK-N-BE neuroblastoma cells (real-time PCR); assay type: cell-based, human; settings: FIG. 2, SOD and GSH to a lesser extent than SAM
Method: as §2, §4

| Molecule | overexpression of PS1 induced by a deprived diet in vivo (PS1 [1]) | overexpression of BACE induced by a deprived diet in vivo (BACE [2]) | intracellular levels of SAM (SK-N-BE cell cultures) [µM] | radioactivity level of soluble brain lysate (PCA-precipitated cleared lysate), as SAM [3] [ng] | PS1 expression after the administration of SAM (PS1 [4]) | BACE expression after the administration of SAM (BACE [5]) | overexpression of PS1 induced by vitamin deprivation (PS1 [6]) | overexpression of BACE induced by vitamin deprivation (BACE [7]) |
| --- | --- | --- | --- | --- | --- | --- | --- | --- |
| C[S+](CC[C@H](N)C(=O)O)C[C@H]1O[C@@H](n2cnc3c(N)ncnc32)[C@H](O)[C@@H]1O (some centres unmarked) [SAM, S-adenosylmethionine] | reverses the overexpression | reverses the overexpression | 2.5 to 3 | ~0.5 | marked reduction | marked reduction |  |  |
| SOD: enzyme superoxide dismutase, obtained by fermentation from strains of Saccharomyces cerevisiae (protein, UniProt P00445 2-154, looked up) Superoxide dismutase [Cu-Zn]: VQAVAVLKGDAGVSGVVKFEQASESEPTTVSYEIAGNSPNAERGFHIHEFGDATNGCVSAGPHFNPFKKTHGAPTDEVRHVGDMGNVKTDENGVAKGSFKDSLIKLIGPTSVVGRSVVIHAGQDDLGKGDTEESLKTGNAGPRPACGVIGLTN |  |  |  |  |  |  | inhibit overexpression | inhibit overexpression |

— patent US8778337B2, “Use of S-adenosylmethionine (SAM) and superoxide dismutase (SOD) for the preparation of medicaments for the treatment of alzheimer's disease” (Gnosis S.p.A., priority 2008, dated 2014)
